Laboratory results: patent US10765758B2, “Optimized in vivo delivery system with endosomolytic agents for nucleic acid conjugates” (ONXEO, priority 2010, dated 2020)
{Cy3} = cyanine 3 fluorescent label; {Chol} = cholesterol

Key:
[1] = test system: SV40 transformed fibroblasts MRC-5; assay: Flow cytometry cellular uptake of formulated Dbait-cy3 (Table 1); format: cell-based, human
Procedure: (§1) The inventors monitored the cellular uptake of the different complexes using a fluorescent cy3-modified Dbait. The initial fluorescence of the cy3-Dbait complex was monitored immediately before transfection. […] Cellular content of human transfected fibroblast cells was measured by flow cytometry analysis.
The Dbait molecules were made by automated solid-phase oligonucleotide synthesis. […] […] (SEQ ID NO: 4) where H is a hexaethyleneglycol linker. Studies on cells in culture were performed using SV40 transformed fibroblasts MRC-5. Cells were grown at 37° C. in monolayer cultures in complete DMEM (Gibco, Cergy-Pontoise, France) with 10% FCS and antibiotics (100 μg/mL streptomycin and 100 μg/mL penicillin) under conditions of 100% humidity, 95% air and 5% CO2. Unless otherwise specified, transfections were performed in 1.2 mL MEM medium without serum in 60 mm diameter plates. Transfection with jetPEI (Polyplus-transfection, Illkirch, France) was performed at an N/P ratio of 6 according to the manufacturer's instructions. Briefly, Dbait was diluted in 150 mM NaCl and gently mixed with an equal volume of PEI in 150 mM NaCl and added to DMEM medium without serum. coDbait was directly added to DMEM medium without serum. Transfection of Dbait molecules was performed with SuperFect reagent in 1.2 mL DMEM medium with serum (in 60 mm diameter plates) for 5 hours and then cells were left to recover for 1 hour if not indicated otherwise. For electroporation, 1.2×10^6 cells were transfected with 2 μg Dbait using the Gene Pulser II (Bio-Rad, Marnes-la-Coquette, France). At the end of the 5h transfection (time zero), medium was replaced by complete medium and cells were grown for the indicated time before being analyzed.
(§2) Cells were transfected with different complexes with Dbait-cy3 for 5 h and allowed to grow 5 hours or 24 hours, then rapidly washed with PBS. Cells were directly analyzed by flow cytometry. For immunofluorescence detection by flow cytometry, the cells were fixed in 2% paraformaldehyde for 10 min prior to immunodetection. […] Cells were washed with PBS and resuspended in PBS with 50 μg/mL propidium iodide, 25U/ml RNaseA. Cells were analyzed by a FACSCalibur flow cytometer (BD Biosciences, Franklin Lakes, N.J., USA) and data was analyzed using BD CellQuest Pro (BD Biosciences) and the free WinMDI 2.8 (Scripps Research Institute, La Jolla, Calif., USA) software.

[2] = test system: SK28 melanoma xenograft; conditions: coDbait 0.6 mg IT alone (group 4) or CQ 1 mg i.p. alone (group 3), with irradiation
Description: Survival of five groups of nude mice bearing SK28 melanoma xenografts has been studied.

[3] = test system: SK28 xenografted human melanoma; assay: SK28 xenograft survival and tumor growth delay after irradiation with formulated Dbait (Table 2); conditions: IT; for Mean TGD: tumor growth delay
Procedure: The antitumoral effect of formulated Dbait was tested in combination with radiotherapy on SK28 xenografted human melanoma. Dbait/vector complexes were administered 5 hours before each irradiation using intratumoral injections.
SK28 or U87G xenograft tumors were obtained by injecting 10^6 tumor cells into the flanks of adult female nude mice (Charles River strain; L'Arbresle, France). […] After approximately 12 days, when the subcutaneous tumors measured 150-200 mm^3, the mice were separated into homogeneous groups of at most 12 each to receive different treatments. […] Doses were controlled by thermoluminescence dosimetry. A total dose of 30 Gy was delivered in 6 sessions at intervals of three sessions of 5 Gy per week during two weeks. Dbait molecules were prepared in 100 μL of 10% sucrose as previously described for in vitro studies except that PEI mixtures were performed without NaCl (Polyplus-transfection, Strasbourg, France). The Dbait mixtures were incubated for 15 min at room temperature before injection. CoDbait was diluted in 10% sucrose at the required concentration. Intratumoral injections of the indicated amount of Dbait were performed 5 h before each radiotherapy session. Mock treated animals were injected with 100 μL of 10% glucose according to the protocol of the associated assays. Tumor size was assessed by caliper measurements every three days and size was calculated by the formula (2× length×width^2). Mice were weighed and pictures of tumors were taken every week. For ethical reasons, the animals were sacrificed when their tumors reached 2,000 mm^3. The end point used in survival analysis was death day.
Descriptive analyses of the tumor response were performed for each treatment and each tumor type. Day 1 was the day of the first treatment session. All animals were followed for at least 150 days. Median lifetime was estimated according to the Kaplan-Meier method. Tumor growth delay (TGD) was calculated by subtracting the mean tumor volume quadrupling time of the control group from tumor volume quadrupling times of individual mice in each treated group. The mean TGD was calculated for each treated group using the individual measurements. […] A global LogRank was first performed for each group with the same tumor type. Then treatments with Dbait were compared to the mock-treated controls. All tests were considered significant at the 0.05 significance level.

[4] = test system: MRC5 cell line; assay: Flow cytometry analysis of cellular uptake in the MRC5 cell line (Cy3); format: cell-based, human
Procedure: Cellular uptake of the Dbait conjugated to cholesterol, in particular CoDbait, in comparison with the Dbait was measured by the inventors by flow cytometry analysis.
Flow cytometry analysis of cellular uptake in the MRC5 cell line performed at 5 hours after the beginning of treatment of various transfection conditions was as described in the table.

[5] = Fluorescence of formulated cy3-Dbait before transfection; conditions: fluorescence at FL2 value of the cy3-Dbait formulation
Procedure: as §1
as §2, with “Cells” for “Cells were transfected with different complexes with Dbait-cy3 for 5 h and allowed to grow 5 hours or 24 hours, then rapidly washed with PBS. Cells”

[6] = test system: zebrafish embryos; assay: Injection into 1K-stage zebrafish embryos: distribution and 24 h phenotype toxicity; conditions: same concentration of Dbait, by adjuvant
Procedure: More than 100 embryos were analyzed for each condition.
The observation of phenotypic effects 20 hours after injection allowed assessment of Dbait activity and treatment overall toxicity. […] The 24-hour phenotypes were categorized as described (FIG. 3), allowing quantification of the injected mixture's toxicity.
Zebrafish eggs were obtained from natural spawning of wild type or transgenic (flactin:egfp-ras) fish lines. […] Glass capillaries (Harvard Apparatus GC100-10) were pulled with a KopF vertical pipette puller (KopF 720) to make injection needles. 2 to 5 nl of Dbait solution were injected at the animal pole of embryos in cell cycle 10 and immediately processed for confocal laser scanning microscopy imaging (upright Leica SP2) with 40×/0.8 NA water dipping lens objective. Imaging was performed by simultaneous 480 nm (eGFP) and 561 nm (cy3) excitation. […] One-day-old larvae were observed under the dissecting stop and phenotypes categorized as described in FIG. 3. […] Dbait (coDbait)-cy3 50 μM was injected either alone or in combination with PEI25K (ratio N/P=9), PEI11K (ratio N/P-6), or SuperFect (10 μl/1 μg Dbait).

[7] = corrected cellular content FL2/fluorescence, Dbait 1.6 μg/mL

For `CCN(CC)CCCC(C)Nc1ccnc2cc(Cl)ccc12` (stereo not shown) [chloroquine, 7-chloro-4-(4-diethylamino-1-methylbutyl-amino)quinoline], the “MCC 5 hrs” value ([1]; mean cellular content FL2 value, no Dbait, chloroquine only) was 3.12, the radiosensitization [2] was “neither coDbait (group 4) nor CQ (group 3) showed significant radiosensitization” and the “Mean % TGD” value ([3]; CQ without Dbait) was 142%. For the same compound, the Median survival time ([3]; CQ without Dbait) was 68 and the “Mean TGD” value ([3]; CQ without Dbait) was 8.
In the case of “Co_siRNA_H2AX-Cy3: siRNA targeting H2AX with a cyanine 3 and a cholesterol at the 5′ and 3′ of the sense strand (sense CAACAAGAAGACGCGAAUCTT; antisense GAUUCGCGUCUUCUUGUUGTT; sense: 5' {Cy3}, 3' {Chol}, sugars by position and backbone not given here; antisense: chemistry not given here)”, the “Cy3 fluorescence intensity @5 hrs. Mean” value ([4]; 79 nM) is reported as 56, the “Cy3 fluorescence intensity @5 hrs. Median” value ([4]; 79 nM) is reported as 53 and the “Cy3 fluorescence intensity @5 hrs. Mean” value ([4]; 79 nM + CQ 50 μM) is reported as 63. For the same compound, the “Cy3 fluorescence intensity @5 hrs. Median” value ([4]; 79 nM + CQ 50 μM) was 60, the “Cy3 fluorescence intensity @5 hrs. Mean” value ([4]; 986 nM) was 710 and the “Cy3 fluorescence intensity @5 hrs. Median” value ([4]; 986 nM) was 661. The “Cy3 fluorescence intensity @5 hrs. Mean” value ([4]; 986 nM + CQ 50 μM) was 1214 and the “Cy3 fluorescence intensity @5 hrs. Median” value ([4]; 986 nM + CQ 50 μM) was 1144.
With “Dbait: 32-bp hairpin DNA, SEQ ID NO: 4, hexaethyleneglycol linker; mimics double strand breaks (DNA GCTGTGCCCACAACCCAGCAAACAAGCCTAGA; DNA, backbone not given here; hairpin DNA with hexaethyleneglycol linker)” the “fluorescence × 10e−6/μg/mL” value [5] was 6 10e−6/μg/mL, the “cor MCC 5 hrs” value [1, 7] was 0.43 and the “cor MCC 24 hrs” value [1, 7] was 0.56. For the same compound, the “fluorescence distribution of treated cells” value ([1]; flow cytometry) was “not different from untreated controls”, the “MCC 24 hrs” value ([1]; mean cellular content FL2 value, Dbait 1.6 μg/mL) was 3.45 and the “MCC 5 hrs” value ([1]; mean cellular content FL2 value, Dbait 1.6 μg/mL, chloroquine +/− as in row) was 2.65. For the same compound, the “24-hour phenotype / toxicity in zebrafish embryos” value [6] was “no effect on development”, the “Mean % TGD” value ([3]; 6 × 60 μg (3 nmol)) was 114% and the Median survival time ([3]; 6 × 60 μg (3 nmol)) was 63. The Cured mice ([3]; 6 × 60 μg (3 nmol), no recurrence within 300 days) was 0, the Relative risk ([3]; 6 × 60 μg (3 nmol), versus mock) was 1.40 and the “Mean TGD” value ([3]; 6 × 60 μg (3 nmol)) was 3.
